Measured values from US5210193A, “Piperazine derivatives” (American Cyanamid Company, priority 1990, dated 1993).
Converted amounts (≈) assume the structure as drawn. “And” between values parts separate entries of the source, which are not always exact repeats. Identical values can stand only once. Counter-ions that a name gives are not always drawn. Like-named read-outs stand apart in the source and are kept apart here.

Assays:
Test in all cases: in vitro antibacterial MIC, agar plate dilution
Assay type in all cases: cell-based
[1] = system: Escherichia coli ATCC 25922; details: 35° C.
Summary of the method: (§1)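 Read-out is visible growth inhibition on Mueller-Hinton agar dilution plates incubated 18 hours at 35° C after inoculation of ~10^4 CFU (Steers device), with MIC reported in mcg/ml.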

[2] = system: Morganella morganii VGH 84-11; details: VGH8411, 18 hours, 35° C., read-out: MIC
Summary of the method: as §1

[3] = system: Klebsiella oxytoca MOR 84-28; details: MOR8428, 18 hours, 35° C.
Summary of the method: as §1

[4] = system: Enterobacter cloacae VGH 84-37; details: Enterobacter cloacae, VGH8437, 18 h, 35° C., read-out: MIC
Summary of the method: as §1

[5] = system: Staphylococcus epidermidis CMC 83-135; details: CMC83135, 18 hours, 35° C., read-out: MIC
Summary of the method: as §1

[6] = system: Staphylococcus epidermidis IO 83-58; details: IO8358, 18 hours, 35° C., read-out: MIC
Summary of the method: as §1

[7] = system: Enterobacter aerogenes VGH 84-36; details: Klebsiella aerogenes, VGH8436, 18 hours, 35° C., read-out: MIC
Summary of the method: as §1

Klebsiella pneumoniae AD = details: Klebsiella pneumoniae, 18 h, 35° C., read-out: MIC
Summary of the method: as §1

[8] = system: Staphylococcus aureus ATCC 25913; details: ATCC25913, 18 hours, 35° C.
Summary of the method: as §1

[9] = system: Staphylococcus epidermidis VGH 84-40; details: VGH8440, 18 hours, 35° C., read-out: MIC
Summary of the method: as §1

[10] = system: Pseudomonas aeruginosa LL-1244; details: Pseudomonas aeruginosa, LL1244, 18 h, 35° C., read-out: MIC
Summary of the method: as §1

[11] = system: Serratia marcescens K 84-18; details: 35° C.
Summary of the method: as §1

[12] = system: Escherichia coli PRNT 311; details: PRNT311, 18 hours, 35° C., read-out: MIC
Summary of the method: as §1

[13] = system: Staphylococcus Spp saprophiticus VGH 84-50; details: 18 hours, 35° C., read-out: MIC
Summary of the method: as §1

[14] = system: Staphylococcus aureus VGH 84-46; details: Staphylococcus aureus, VGH8446, 18 h, 35° C., read-out: MIC
Summary of the method: as §1

[15] = system: Escherichia coli CMC 84-16; details: Escherichia coli, CMC8416, 18 h, 35° C., read-out: MIC
Summary of the method: as §1

[16] = system: Enterobacter cloacae K 84-10; details: 35° C.
Summary of the method: as §1

[17] = system: Pseudomonas aeruginosa VGH 84-4; details: Pseudomonas aeruginosa, VGH844, 18 h, 35° C., read-out: MIC
Summary of the method: as §1

[18] = system: Staphylococcus aureus CMC 83-127; details: Staphylococcus aureus, CMC83127, 18 h, 35° C., read-out: MIC
Summary of the method: as §1

[19] = system: Morganella morganii CMC 84-37; details: 35° C.
Summary of the method: as §1

[20] = system: Klebsiella pneumoniae MOR 84-4; details: Klebsiella pneumoniae, MOR844, 18 h, 35° C., read-out: MIC
Summary of the method: as §1

[21] = system: Staphylococcus aureus CMC 83-128; details: CMC83128, 18 hours, 35° C., read-out: MIC
Summary of the method: as §1

[22] = system: Staphylococcus aureus Smith; details: 35° C.
Summary of the method: as §1

Escherichia coli NAR 311 = details: NAR311, 18 hours, 35° C., read-out: MIC
Summary of the method: as §1

[23] = system: Proteus rettgeri CMC 84-41; details: 35° C.
Summary of the method: as §1

[24] = system: Escherichia coli CMC 84-11; details: 35° C.
Summary of the method: as §1

[25] = system: Staphylococcus aureus ATTC 29213; details: 35° C.
Summary of the method: as §1

[26] = system: Streptococcus faecalis ATTC 29212; details: Enterococcus faecalis, ATTC29212, 18 hours, 35° C., read-out: MIC
Summary of the method: as §1

[27] = system: Staphylococcus aureus VGH 84-45; details: 35° C.
Summary of the method: as §1

[28] = system: Serratia marcescens F 0-35; details: Serratia marcescens, F035, 18 h, 35° C., read-out: MIC
Summary of the method: as §1

[29] = system: Streptococcus faecalis VGH 84-65; details: Enterococcus faecalis, VGH8465, 18 h, 35° C., read-out: MIC
Summary of the method: as §1

[30] = system: Staphylococcus aureus VGH 84-47; details: 18 hours, 35° C., monohydrochloride
Summary of the method: as §1

[31] = system: Providencia stuarti CMC 83-3; details: 18 hours, 35° C., monohydrochloride
Summary of the method: as §1

[32] = system: Escherichia coli CMC 84-50; details: 18 hours, 35° C., monohydrochloride
Summary of the method: as §1

[33] = system: Enterobacter cloacae VGH 84-39; details: 18 hours, 35° C., monohydrochloride
Summary of the method: as §1

[34] = system: Klebsiella pneumoniae CMC 84-31; details: 18 hours, 35° C., monohydrochloride
Summary of the method: as §1

[35] = system: Klebsiella pneumoniae IO 83-5; details: 18 hours, 35° C., monohydrochloride
Summary of the method: as §1

[36] = system: Serratia marcescens CMC 83-74; details: 18 hours, 35° C., monohydrochloride
Summary of the method: as §1

[37] = system: Serratia marcescens MOR 84-41; details: 18 hours, 35° C., monohydrochloride
Summary of the method: as §1

[38] = system: Enterobacter cloacae MOR 84-30; details: 18 hours, 35° C., monohydrochloride
Summary of the method: as §1

[39] = system: Proteus rettgeri IO 83-21; details: 18 hours, 35° C., monohydrochloride
Summary of the method: as §1

[40] = system: Escherichia coli MOR 84-20; details: 18 hours, 35° C., monohydrochloride
Summary of the method: as §1

[41] = system: Streptococcus faecalis CMC 83-120; details: 18 hours, 35° C., monohydrochloride
Summary of the method: as §1

[42] = system: Staphylococcus aureus CMC 83-131; details: 18 hours, 35° C., monohydrochloride
Summary of the method: as §1

[43] = system: Streptococcus faecalis VGH 84-69; details: 18 hours, 35° C., monohydrochloride
Summary of the method: as §1

[44] = system: Streptococcus faecalis UCI 85-30; details: 18 hours, 35° C., monohydrochloride
Summary of the method: as §1

[45] = system: Streptococcus faecalis UCI 85-19; details: 35° C.
Summary of the method: as §1

[46] = system: Klebsiella pneumoniae MOR 84-24; details: 18 hours, 35° C., monohydrochloride
Summary of the method: as §1

[47] = system: Morganella morganii VHG 84-12; details: Morganella morganii VHG 84-12 (VGH 84-12 for Example 131); 18 hours, 35° C.; monohydrochloride
Summary of the method: as §1

[48] = system: Morganella morganii CMC 84-38; details: 18 hours, 35° C., monohydrochloride
Summary of the method: as §1

[49] = system: Morganella morganii MOR 84-45; details: 18 hours, 35° C., monohydrochloride
Summary of the method: as §1

[50] = system: Staphylococcus aureus K 82-26; details: 18 hours, 35° C., monohydrochloride
Summary of the method: as §1

[51] = system: Escherichia coli VGH 84-19; details: 18 hours, 35° C., monohydrochloride
Summary of the method: as §1

[52] = system: Serratia marcescens VGH 84-30; details: Serratia marcescens, VGH8430, 18 h, 35° C., read-out: MIC
Summary of the method: as §1

[53] = system: Pseudomonas aeruginosa VGH 84-3; details: 18 hours, 35° C., monohydrochloride
Summary of the method: as §1

[54] = system: Pseudomonas aeruginosa K 84-16; details: 18 hours, 35° C., monohydrochloride
Summary of the method: as §1

[55] = system: Pseudomonas aeruginosa CMC 83-20; details: 18 hours, 35° C., monohydrochloride
Summary of the method: as §1

Escherichia coli LL 311 = details: Escherichia coli, LL311, 18 h, 35° C., read-out: MIC
Summary of the method: as §1

[56] = Morganella morganii, CMC8437, 18 h, read-out: MIC
[57] = Staphylococcus aureus, 18 h, read-out: MIC
[58] = Staphylococcus aureus, VGH8445, 18 h, read-out: MIC

## CCn1cc(C(=O)O)c(=O)c2cc(F)c(N3CCNC(c4sc5ccccc5c4C)C3)cc21 (stereo not drawn) [Example 22, 1-Ethyl-6-fluoro-1,4-dihydro-7-[3-(3-methylbenzo[b]-thien-2-yl)-1-piperazinyl]-4-oxo-3-quinolinecarboxylic acid]
[1]; Escherichia coli, ATCC25922, 18 h, read-out: MIC
  MIC: > 256 µg/mL
[2]
  MIC: 256 µg/mL (≈ 550 µM)
[3]
  MIC: > 256 µg/mL
[4]
  MIC: > 256 µg/mL
[5]
  MIC: 2 µg/mL (≈ 4.3 µM)
[6]
  MIC: 8 µg/mL (≈ 17.2 µM)
[7]
  MIC: > 256 µg/mL
Klebsiella pneumoniae AD
  MIC: > 256 µg/mL
[8]
  MIC: 4 µg/mL (≈ 8.59 µM)
[9]
  MIC: 0.5 µg/mL (≈ 1.07 µM)
[10]
  MIC: > 256 µg/mL
[11]; Serratia marcescens, K8418, 18 h, read-out: MIC
  MIC: > 256 µg/mL
[12]
  MIC: > 256 µg/mL
[13]
  MIC: 32 µg/mL (≈ 68.7 µM)
[14]
  MIC: 2 µg/mL (≈ 4.3 µM)
[15]
  MIC: > 256 µg/mL
[16]; Enterobacter cloacae, K8410, 18 h, read-out: MIC
  MIC: > 256 µg/mL
[17]
  MIC: > 256 µg/mL
[18]
  MIC: 0.5 µg/mL (≈ 1.07 µM)
[19]; [56]
  MIC: 256 µg/mL (≈ 550 µM)
[20]
  MIC: > 256 µg/mL
[21]
  MIC: 4 µg/mL (≈ 8.59 µM)
[22]; [57]
  MIC: 2 µg/mL (≈ 4.3 µM)
Escherichia coli NAR 311
  MIC: > 256 µg/mL
[23]; Providencia rettgeri, CMC8441, 18 h, read-out: MIC
  MIC: 256 µg/mL (≈ 550 µM)
[24]; Escherichia coli, CMC8411, 18 h, read-out: MIC
  MIC: > 256 µg/mL
[25]; Staphylococcus aureus, ATTC29213, 18 h, read-out: MIC
  MIC: 4 µg/mL (≈ 8.59 µM)
[26]
  MIC: 256 µg/mL (≈ 550 µM)
[27]; [58]
  MIC: 2 µg/mL (≈ 4.3 µM)
[28]
  MIC: > 256 µg/mL
[29]
  MIC: 256 µg/mL (≈ 550 µM)

## O=C(O)c1cn(C2CC2)c2cc(N3CCNC(c4ccccn4)C3)c(F)cc2c1=O (stereo not drawn) [Example 129, 1-Cyclopropyl-6-fluoro-1,4-dihydro-4-oxo-7-[3-(2-pyridinyl) -1-piperazinyl]-3-quinolinecarboxylic acid, monohydrochloride]
[1]; 18 hours, monohydrochloride
  MIC: 0.03 µg/mL and 0.06 µg/mL
[30]
  MIC: 0.12 µg/mL
[31]
  MIC: 16 µg/mL
[32]
  MIC: 0.25 µg/mL
[33]
  MIC: 0.25 µg/mL
[34]
  MIC: 0.25 µg/mL
[35]
  MIC: 0.5 µg/mL
[36]
  MIC: 16 µg/mL
[37]
  MIC: 0.5 µg/mL
[38]
  MIC: 0.5 µg/mL
[39]
  MIC: 0.5 µg/mL
[40]
  MIC: 0.12 µg/mL
[41]
  MIC: 2 µg/mL
[42]
  MIC: 0.25 µg/mL
[43]
  MIC: 2 µg/mL
[44]
  MIC: 4 µg/mL
[11]; 18 hours, monohydrochloride
  MIC: 0.25 µg/mL
[45]; 18 hours
  MIC: 2 µg/mL
[46]
  MIC: 0.5 µg/mL
[47]
  MIC: 0.5 µg/mL
[19]; 18 hours, monohydrochloride
  MIC: 0.12 µg/mL
[48]
  MIC: 0.25 µg/mL
[49]
  MIC: 0.25 µg/mL
[50]
  MIC: 2 µg/mL
[22]; 18 hours, monohydrochloride
  MIC: 0.03 µg/mL
[24]; 18 hours, monohydrochloride
  MIC: 0.03 µg/mL
[27]; 18 hours, monohydrochloride
  MIC: 0.03 µg/mL
[51]
  MIC: 0.12 µg/mL

## O=C(O)c1cn(C2CC2)c2cc(N3CCNC(c4ccco4)C3)c(F)cc2c1=O (stereo not drawn) [Example 99, 1-Cyclopropyl-6-fluoro-1,4-dihydro-4-oxo-7-[3-(2-furanyl) -1-piperazinyl-3-quinolinecarboxylic acid, monohydrochloride]
[1]; 18 hours, monohydrochloride
  MIC: 0.06 µg/mL and 0.12 µg/mL
[31]
  MIC: 8 µg/mL
[52]
  MIC: 8 µg/mL
[36]
  MIC: 8 µg/mL
[37]
  MIC: 0.25 µg/mL
[38]
  MIC: 0.25 µg/mL
[41]
  MIC: 0.5 µg/mL
[44]
  MIC: 0.5 µg/mL
[10]
  MIC: 4 µg/mL
[11]; 18 hours, monohydrochloride
  MIC: 0.5 µg/mL
[45]; Enterococcus faecalis, UCI8519, 18 h, read-out: MIC
  MIC: 0.5 µg/mL
[16]; 18 hours, monohydrochloride
  MIC: 0.06 µg/mL
[17]
  MIC: 2 µg/mL
[53]
  MIC: 16 µg/mL
[19]; [56]
  MIC: 0.12 µg/mL
[48]
  MIC: 0.12 µg/mL
[54]
  MIC: 4 µg/mL
[50]
  MIC: 0.03 µg/mL
[22]; [57]
  MIC: < 0.015 µg/mL
[55]
  MIC: 4 µg/mL
[23]; 18 hours, monohydrochloride
  MIC: 0.12 µg/mL
Escherichia coli LL 311
  MIC: 0.03 µg/mL
[25]; 18 hours, monohydrochloride
  MIC: 0.03 µg/mL
[27]; [58]
  MIC: < 0.015 µg/mL
[29]
  MIC: 0.5 µg/mL
